Consider 28 compounds from patent US11820766B2, “Monoacylglycerol lipase modulators” (Janssen Pharmaceutica NV, priority 2018, dated 2023).

Bounds are passed on as bounds.

The target of one assay is T1, human MGL from HeLa cells (Homo sapiens, UniProt Q99685).
T1 construct: combining endogenously expressed MGL from HeLa cells with test compounds; endogenous in cells; host or cells: HeLa cells / cell homogenates
T1 sequence (Q99685 1-303): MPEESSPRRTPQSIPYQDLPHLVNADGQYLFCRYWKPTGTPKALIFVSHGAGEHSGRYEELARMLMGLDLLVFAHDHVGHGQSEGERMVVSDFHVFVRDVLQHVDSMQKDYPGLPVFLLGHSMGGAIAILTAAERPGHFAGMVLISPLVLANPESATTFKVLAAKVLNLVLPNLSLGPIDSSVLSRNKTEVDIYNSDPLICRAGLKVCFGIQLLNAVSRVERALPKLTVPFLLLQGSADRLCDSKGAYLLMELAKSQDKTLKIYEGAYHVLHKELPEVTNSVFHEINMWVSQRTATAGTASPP
Description: In vitro MGL activity assay: [glycerol-1,3-3H]-oleyl glycerol cleavage by MGL from HeLa cells. The format is biochemical. The note with it: 300 nM [Glycerol-1,3-3H]-oleyl glycerol, one hour. The text has this: MGL is the predominant hydrolase in HeLa cells/cell homogenates.
As a reminder, the IC50 is the midpoint of a concentration-inhibition curve. The compound `Cc1nc(C(=O)N2CCc3c(nn(C)c3-c3cc(F)c(F)c(F)c3)[C@@H]2C)c2cnn(C)c2n1` [Example 617, (S)-(1,6-Dimethyl-1H-pyrazolo[3,4-d]pyrimidin-4-yl)(2,7-dimethyl-3-(3,4,5-trifluorophenyl)-2,4,5,7-tetrahydro-6H-pyrazolo[3,4-c]pyridin-6-yl)methanone] returned a half-maximal inhibitory concentration (IC50) of 32.4 nM. This counts as double-digit nanomolar.

`Cc1cnc2cccc(C(=O)N3CCc4c(nn(C)c4-c4cc(F)c(F)c(F)c4)[C@@H]3C)c2n1` [Example 475, [(7S)-2,7-Dimethyl-3-(3,4,5-trifluorophenyl)-5,7-dihydro-4H-pyrazolo[3,4-c]pyridin-6-yl]-(3-methylquinoxalin-5-yl)methanone] showed an IC50 of 73.6 nM.

In the case of `Cc1ccccc1-c1c2c(nn1C)[C@H](C)N(C(=O)c1ccc3ncccc3c1)CC2` [Example 492, [(7S)-2,7-Dimethyl-3-(o-tolyl)-5,7-dihydro-4H-pyrazolo[3,4-c]pyridin-6-yl]-(6-quinolyl)methanone], half-maximal inhibition (IC50) was put at 220 nM.

`Cc1[nH]c2ncccc2c1C(=O)N1CCc2c(nn(C)c2-c2cc(F)c(F)c(F)c2)[C@@H]1C` [Example 375, [(7S)-2,7-Dimethyl-3-(3,4,5-trifluorophenyl)-5,7-dihydro-4H-pyrazolo[3,4-c]pyridin-6-yl]-(2-methyl-1H-pyrrolo[2,3-b]pyridin-3-yl)methanone] came in with a 50% inhibitory concentration (IC50) of 30.3 nM.

`C[C@H]1c2nn(C)c(-c3ccc(F)cc3Cl)c2CCN1C(=O)c1ccc2ncccc2c1` [Example 506, [(7S)-3-(2-Chloro-4-fluoro-phenyl)-2,7-dimethyl-5,7-dihydro-4H-pyrazolo[3,4-c]pyridin-6-yl]-(6-quinolyl)methanone] had an IC50 of 347 nM.

Take `C[C@H]1c2nn(C)c(-c3ccc(F)c(F)c3F)c2CCN1C(=O)c1ccc2ncccc2c1` [Example 515, [(7S)-2,7-Dimethyl-3-(2,3,4-trifluorophenyl)-5,7-dihydro-4H-pyrazolo[3,4-c]pyridin-6-yl]-(6-quinolyl)methanone]: the midpoint of inhibition, the IC50, lay at 52.2 nM. This IC50 is about 6.6-fold lower than that of the compound before.

With `C[C@H]1c2nn(C)c(-c3cc(F)c(F)c(F)c3)c2CCN1C(=O)c1n[nH]c2ccccc12` [Example 361, [(7S)-2,7-Dimethyl-3-(3,4,5-trifluorophenyl)-5,7-dihydro-4H-pyrazolo[3,4-c]pyridin-6-yl]-(1H-indazol-3-yl)methanone], inhibition was half-maximal at 14.6 nM (IC50). Compared with the last compound, the IC50 is about 3.6-fold lower.

`Cc1cn2nc(C(=O)N3CCc4c(nn(C)c4-c4cc(F)c(F)c(F)c4)[C@@H]3C)ccc2n1` [Example 453, [(7S)-2,7-Dimethyl-3-(3,4,5-trifluorophenyl)-5,7-dihydro-4H-pyrazolo[3,4-c]pyridin-6-yl]-(2-methylimidazo[1,2-b]pyridazin-6-yl)methanone]: the 50% inhibitory concentration (IC50) came out at 165 nM.

`C[C@H]1c2nn(C)c(-c3cc(F)c(F)c(F)c3)c2CCN1C(=O)c1cn(C)nc1C1(C)CC1` [Example 347, [(7S)-2,7-Dimethyl-3-(3,4,5-trifluorophenyl)-5,7-dihydro-4H-pyrazolo[3,4-c]pyridin-6-yl]-[1-methyl-3-(1-methylcyclopropyl)pyrazol-4-yl]methanone] registered a half-maximal inhibitory concentration (IC50) of 2490 nM.

In the case of `C[C@H]1c2nn(C)c(-c3cc(F)c(F)c(F)c3)c2CCN1C(=O)c1ncnc2c(F)cccc12` [Example 481, [(7S)-2,7-Dimethyl-3-(3,4,5-trifluorophenyl)-5,7-dihydro-4H-pyrazolo[3,4-c]pyridin-6-yl]-(8-fluoroquinazolin-4-yl)methanone], the IC50 is 5.2 nM.

On to `COc1cc(Cl)cc(-c2c3c(nn2C)[C@H](C)N(C(=O)c2c(C)nc4ccc(F)cn24)CC3)c1` [Example 406, [(7S)-3-(3-Chloro-5-methoxy-phenyl)-2,7-dimethyl-5,7-dihydro-4H-pyrazolo[3,4-c]pyridin-6-yl]-(6-fluoro-2-methyl-imidazo[1,2-a]pyridin-3-yl)methanone], for which the IC50 came out at 22.6 nM.

On to `C[C@H]1c2nn(C)c(-c3cc(F)c(F)c(F)c3)c2CCN1C(=O)c1ccnc2c1OCCC2` [Example 568, 3,4-Dihydro-2H-pyrano[3,2-b]pyridin-8-yl-[(7S)-2,7-dimethyl-3-(3,4,5-trifluorophenyl)-5,7-dihydro-4H-pyrazolo[3,4-c]pyridin-6-yl]methanone], for which inhibition was half-maximal at 9.68 nM (IC50).

Consider `Cc1c(C(=O)N2CCc3c(nn(C)c3-c3cc(F)c(F)c(F)c3)[C@@H]2C)nn2c1OCCC2` [Example 555, [(7S)-2,7-Dimethyl-3-(3,4,5-trifluorophenyl)-5,7-dihydro-4H-pyrazolo[3,4-c]pyridin-6-yl]-(3-methyl-6,7-dihydro-5H-pyrazolo[5,1-b][1,3]oxazin-2-yl)methanone], for which half-maximal inhibition (IC50) was put at 183 nM.

Regarding `Cc1ccn2c(C(=O)N3CCc4c(nn(C)c4-c4cc(F)c(F)c(F)c4)[C@@H]3C)cnc2c1` [Example 399, [(7S)-2,7-Dimethyl-3-(3,4,5-trifluorophenyl)-5,7-dihydro-4H-pyrazolo[3,4-c]pyridin-6-yl]-(7-methylimidazo[1,2-a]pyridin-3-yl)methanone], half-maximal inhibition (IC50) was put at 63.2 nM.

`C[C@H]1c2nn(C)c(-c3cc(F)c(F)c(F)c3)c2CCN1C(=O)c1ccc2[nH]c(=O)oc2c1` [Example 588, 6-[(7S)-2,7-Dimethyl-3-(3,4,5-trifluorophenyl)-5,7-dihydro-4H-pyrazolo[3,4-c]pyridine-6-carbonyl]-3H-1,3-benzoxazol-2-one] had a 50% inhibitory concentration (IC50) of 11.3 nM.

Compound `Cc1cccc2nc(C(F)(F)F)c(C(=O)N3CCc4c(nn(C)c4-c4cc(F)c(F)c(F)c4)[C@@H]3C)n12` [Example 414, [(7S)-2,7-Dimethyl-3-(3,4,5-trifluorophenyl)-5,7-dihydro-4H-pyrazolo[3,4-c]pyridin-6-yl]-[5-methyl-2-(trifluoromethyl)imidazo[1,2-a]pyridin-3-yl]methanone] yielded an IC50 of 20.4 nM.

Still in this assay, the particulars now being: 300 nM [Glycerol-1,3-3H]-oleyl glycerol, one hour incubation.
`C[C@H]1c2nn(C)c(-c3cc(F)c(F)c(F)c3)c2CCN1C(=O)c1cnn(C(F)(F)F)c1` [Example 329, [(7S)-2,7-Dimethyl-3-(3,4,5-trifluorophenyl)-5,7-dihydro-4H-pyrazolo[3,4-c]pyridin-6-yl]-[1-(trifluoromethyl)pyrazol-4-yl]methanone] came in with an IC50 of 5080 nM.

Regarding `C[C@H]1c2nn(C)c(-c3cc(F)c(F)c(F)c3)c2CCN1C(=O)c1ccc2c(cnn2C)c1` [Example 211, (S)-(2,7-Dimethyl-3-(3,4,5-trifluorophenyl)-2,4,5,7-tetrahydro-6H-pyrazolo[3,4-c]pyridin-6-yl)(1-methyl-1H-indazol-5-yl)methanone], the IC50 was 72.2 nM.

`C[C@H]1c2nn(C)c(-c3cc(F)cc(F)c3)c2CCN1C(=O)c1cc(F)cc(OCCF)c1` [Example 143, (S)-(3-(3,5-Difluorophenyl)-2,7-dimethyl-2,4,5,7-tetrahydro-6H-pyrazolo[3,4-c]pyridin-6-yl)(3-fluoro-5-(2-fluoroethoxy)phenyl)methanone] returned an IC50 of 4.21 nM.

Regarding `C[C@H]1c2nn(C)c(-c3cc(F)c(F)c(F)c3)c2CCN1C(=O)c1cnc2ccccn12` [Example 213, (S)-(2,7-Dimethyl-3-(3,4,5-trifluorophenyl)-2,4,5,7-tetrahydro-6H-pyrazolo[3,4-c]pyridin-6-yl)(imidazo[1,2-a]pyridin-3-yl)methanone], the midpoint of inhibition, the IC50, lay at 25.6 nM.

For the compound `Cn1nc2c(c1-c1ccccc1)CCN(C(=O)c1c[nH]c3ccncc13)C2` [Example 83, (2-Methyl-3-phenyl-2,4,5,7-tetrahydro-6H-pyrazolo[3,4-c]pyridin-6-yl)(1H-pyrrolo[3,2-c]pyridin-3-yl)methanone], the IC50 was 1500 nM. This IC50 is about 59-fold higher than that of the compound before.

In the case of `C[C@@H]1c2nn(C)c(-c3cccc(Cl)c3)c2CCN1C(=O)c1ccc2nccnc2c1` (single isomer, unassigned) [Example 133], the IC50 was more than 10000 nM.

`CC1c2nn(C)c(-c3cc(F)cc(F)c3)c2CCN1C(=O)c1ccc2ncccc2c1` (stereo not shown) [Example 106, (3-(3,5-Difluorophenyl)-2,7-dimethyl-2,4,5,7-tetrahydro-6H-pyrazolo[3,4-c]pyridin-6-yl)(quinolin-6-yl)methanone]: the half-inhibitory concentration (IC50) was 7.36 nM.

With `C[C@H]1c2nn(C)c(-c3cc(F)c(F)c(F)c3)c2CCN1C(=O)c1ccc(F)c(-n2cnnc2)c1` [Example 291, [(7S)-2,7-Dimethyl-3-(3,4,5-trifluorophenyl)-5,7-dihydro-4H-pyrazolo[3,4-c]pyridin-6-yl]-[4-fluoro-3-(1,2,4-triazol-4-yl)phenyl]methanone], the IC50 turned out to be 1400 nM.

`C[C@H]1c2nn(C)c(-c3cc(F)c(F)c(F)c3)c2CCN1C(=O)c1cc(F)cc(-n2cnnc2)c1` [Example 292, [(7S)-2,7-Dimethyl-3-(3,4,5-trifluorophenyl)-5,7-dihydro-4H-pyrazolo[3,4-c]pyridin-6-yl]-[3-fluoro-5-(1,2,4-triazol-4-yl)phenyl]methanone]: it took 245 nM to reach half-maximal inhibition (IC50).

In the case of `Cn1nc2c(c1C1CC1)CCN(C(=O)c1cccc(Cl)c1Cl)C2` [Example 2, (3-Cyclopropyl-2-methyl-2,4,5,7-tetrahydro-6H-pyrazolo[3,4-c]pyridin-6-yl)(2,3-dichlorophenyl)methanone], the midpoint of inhibition, the IC50, lay at 4600 nM. Compared with the last compound, the IC50 is about 19-fold higher.

`CC(C)Oc1ccc(C(=O)N2CCc3c(nn(C)c3-c3cccc(Cl)c3)[C@@H]2C)cn1` [Example 121, (S)-(3-(3-Chlorophenyl)-2,7-dimethyl-2,4,5,7-tetrahydro-6H-pyrazolo[3,4-c]pyridin-6-yl)(6-isopropoxypyridin-3-yl)methanone]: the IC50 was determined as 330 nM. Against the preceding compound, the IC50 is about 14-fold lower.

In turn, `CC1c2nn(C)c(-c3cc(F)cc(F)c3)c2CCN1C(=O)c1ccc2ncccc2c1Cl` (stereo not shown) [Example 163, (5-Chloroquinolin-6-yl)(3-(3,5-difluorophenyl)-2,7-dimethyl-2,4,5,7-tetrahydro-6H-pyrazolo[3,4-c]pyridin-6-yl)methanone] registered a half-maximal inhibitory concentration (IC50) of 11.8 nM. This IC50 is about 28-fold lower than that of the compound before.
